The values that follow come from patent publication US8637461B2, “Method of diagnosing and treating oxidative stress-impaired wound healing” (Kuwait University, priority 2011, dated 2014).

One assay has as its system PI3K-p85α / IRS-1. The assay can be described thus: Co-precipitation of PI3K p85α with IRS-1 in dermal fibroblasts. The format is cell-based, rat. The settings on record: diabetic, TNF-α- or dexamethasone-exposed fibroblasts; EUK-134. The procedure:
(§1) Primary dermal fibroblasts were obtained from dorsal skin of female Goto Kakizaki (GK, age 12-15 months) rats, a model for non-obese type 2 diabetes, and their Wistar control counterparts. After sterilization in povidine solution, rat skin was washed in sterile water and rinsed in 70% ethanol in PBS. Epidermis and dermis were separated following overnight incubation in 0.25% trypsine/EDTA at 4 C. Dermis was cut into small pieces and incubated in Dulbecco's modified Eagle medium (DMEM; Invitrogen) containing collagenase (250 U/ml; Sigma) for thirty min at 37 C in 5% CO2 with constant agitation. The sections were triturated vigorously to release fibroblasts, which were collected by centrifugation. […]
(§2) A hypercortisolemic state was mimicked by exposing control fibroblasts to dexamethasone (Dexa, Sigma) administered at 20 ng/ml every other day for a duration of 8 days. […] The concentration of IGF-1 (50 ng/ml, Peprotech) was determined by prior dose response experiment.
(§3) Levels/activities of key intracellular molecules in the IGF-1 signaling cascade including IRS-1, IRS-1 Tyr-p-612, PI3K-p85α, IRS-1 Ser-p (307), PI3K, Akt, p-Akt, INK and p-JNK were assessed using western blotting/immunoprecipitation and commercially available ELISA-based assays. […]

For the next assay, the system named is Akt. The assay can be described thus: Akt phosphorylation, FACE cell-based ELISA in fixed fibroblasts. The settings on record: diabetic, TNF-α- or dexamethasone-exposed cells, EUK-134. Also on record: species or system rat. The procedure: as §1, §2
(§4) Activation of Akt and JNK was analyzed in fixed fibroblasts using FACE-Akt and FACE-JNK (both from Active Motife). […] Labeling with antibodies was conducted according to the manufacturer's protocol and the resulting phosphoantibody signal was calculated after correction for number of cells and total Akt or JNK levels in each sample. […]

The test system of a further assay is IRS-1. Kind of assay: IRS-1 Ser307 phosphorylation in dermal fibroblasts. The assay is classed as cell-based, rat. The settings on record: diabetic, TNF-α- or dexamethasone-exposed cells; EUK-134. The procedure: as §1, §2, §3
For assay [1], the system named is Jun N-terminal kinase (JNK). The assay can be described thus: JNK phosphorylation, FACE-JNK ELISA in fibroblasts. The assay is classed as cell-based, rat. As to conditions: diabetic, TNF-α- or dexamethasone-exposed cells; EUK-134. How it is done:
as §1, §2, §4
Background: In an ELISA, binding on a coated surface is turned into a signal by an enzyme label.

Assay [2] relates to dermal fibroblasts. Kind of assay: Radiolabelled proline uptake assay (collagen synthesis) in fibroblasts. The assay is classed as cell-based, rat. The settings on record: diabetic, TNF-α- or dexamethasone-exposed cells; EUK-134. The procedure: as §1, §2
The proliferation and collagen synthesis of cultured fibroblasts were determined using, respectively the 5-bromo-2-deoxyuridine (BrdU) incorporation into DNA and a radiolabelled proline uptake assay.
A radiolabel proline uptake assay was used in the quantification of the rate of collagen synthesis in cultured fibroblasts derived from various experimental groups. […]

The next assay concerns COL1A1 mRNA. Kind of assay: Real time PCR of COL1A1 mRNA in fibroblasts. The format is cell-based, rat. The settings on record: diabetic, TNF-α- or dexamethasone-exposed cells; EUK-134. The procedure: (§5) Primary dermal fibroblasts were obtained from dorsal skin of female Goto Kakizaki (GK, age 12-15 months) rats, a model for non-obese type 2 diabetes, and their Wistar control counterparts. After sterilization in povidine solution, rat skin was washed in sterile water and rinsed in 70% ethanol in PBS. Epidermis and dermis were separated following overnight incubation in 0.25% trypsine/EDTA at 4 C. Dermis was cut into small pieces and incubated in Dulbecco's modified Eagle medium (DMEM; Invitrogen) containing collagenase (250 U/ml; Sigma) for thirty min at 37 C in 5% CO2 with constant agitation. The sections were triturated vigorously to release fibroblasts, which were collected by centrifugation. The cell pellet was washed two times with PBS, re-suspended in complete medium (DMEM supplemented with 10% fetal calf serum, penicillin (100 U/ml), streptomycin (100 μg/ml)), 2 mM L-glutamine and 10 mM HEPES) and then cultured under a standard condition.
A hypercortisolemic state was mimicked by exposing control fibroblasts to dexamethasone (Dexa, Sigma) administered at 20 ng/ml every other day for a duration of 8 days. Similarly, the state of low-grade inflammation in fibroblasts was recapitulated experimentally by exposing these cells to TNF-α (4 ng/ml every day for 4 days). […] The concentration of IGF-1 (50 ng/ml, Peprotech) was determined by prior dose response experiment. […]

For assay [3], the system named is dermal fibroblasts. The assay can be described thus: Collagen gel contraction assay with fibroblasts. The format is cell-based, rat. As to conditions: diabetic, TNF-α- or dexamethasone-exposed cells; EUK-134. The procedure: as §5, §2
The ability of fibroblasts to migrate in response to IGF-I in each of our models of oxidative stress-induced IGF-1 resistance was also evaluated. […]

In the case of `COc1cccc(C=NCCN=Cc2cccc(OC)c2[O-])c1[O-].[Cl-].[Mn+3]` [EUK-134], the “association of PI3K p85α with IRS-1 in response to IGF-1” value in the assay on PI3K-p85α / IRS-1 is reported as “restores this association”. Further, the “Akt phosphorylation in response to IGF-1” value in the assay with Akt is “partially restored”. In the assay with IRS-1, the “phosphorylation of IRS-1 at Ser307” value is “diminishes Ser307 phosphorylation to levels comparable to the basal level in normal fibroblasts”. The “basal JNK activity (phosphorylation)” value in assay [1] is “returns its phosphorylation state to approximate levels found in normal fibroblasts”. For the same compound, the “proline uptake (collagen synthesis)” value in the assay with dermal fibroblasts [2] is on record as “returns it to approximately control levels”. Also, the “collagen mRNA synthesis” value in the assay on COL1A1 mRNA was “returns it to approximately control levels”. In addition, in the assay with dermal fibroblasts [3], the “contractility in collagen gel assay” value is given as “partially restores this contractility to control levels”.
